Blank lines part the entries; values can stand above or below the molecule they belong to.
Experiments:
[1] = biological target: T1, human cloned CHRM3 receptor (M3_CHO cells) (Homo sapiens, UniProt P20309); experiment: CHRM3 Ca++ Flux Assay (agonist mode, FDSS 7000EX); assay type: cell-based; details: for Emax: Percent Activity measured to EC100 of Carbachol, read-out: M3 FDSS PA; for EC50: agonist mode, geometric mean if tested more than once, read-out: M3 FDSS EC50
T1 construct: expressed in transfected cells; host or cells: CHO-K1
T1 sequence (P20309 whole entry): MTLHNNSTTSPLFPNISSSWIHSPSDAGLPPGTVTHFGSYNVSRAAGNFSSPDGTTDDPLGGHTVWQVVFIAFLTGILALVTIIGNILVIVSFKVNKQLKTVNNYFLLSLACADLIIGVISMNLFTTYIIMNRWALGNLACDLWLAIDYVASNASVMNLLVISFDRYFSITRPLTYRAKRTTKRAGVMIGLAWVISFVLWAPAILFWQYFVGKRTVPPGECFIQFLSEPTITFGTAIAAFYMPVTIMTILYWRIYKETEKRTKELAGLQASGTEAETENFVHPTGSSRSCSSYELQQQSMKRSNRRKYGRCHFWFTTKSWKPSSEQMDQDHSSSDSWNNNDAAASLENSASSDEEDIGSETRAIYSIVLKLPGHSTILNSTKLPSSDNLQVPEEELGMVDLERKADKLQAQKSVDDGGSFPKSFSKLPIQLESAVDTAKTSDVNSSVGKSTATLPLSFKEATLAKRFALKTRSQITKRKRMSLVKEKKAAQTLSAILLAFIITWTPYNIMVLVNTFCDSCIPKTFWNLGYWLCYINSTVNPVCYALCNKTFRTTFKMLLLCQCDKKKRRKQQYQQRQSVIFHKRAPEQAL
How it was run: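 Stable CHO-K1 lines (human M3 or M5), calcium-dye loaded ≥1 h, assayed in Ca/Mg-free HBSS + 20 mM HEPES + 2.5 mM probenecid. 11-pt dose response, triplicate, 3 min fluorescence read. 4-parameter regression; % activity vs carbachol EC100.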

[2] = biological target: T2, Cloned human M1 receptor (CHRM1) stably expressed in HEK293 cells (Homo sapiens, UniProt P11229); experiment: CHRM1 Ca++ Flux Assay (agonist mode, FDSS 7000EX); assay type: cell-based; details: for Emax: HEK293, Percent Activity, read-out: M1 FDSS PA; for EC50: geometric mean if tested more than once
T2 construct: expressed in transfected cells; host or cells: HEK293
T2 sequence (P11229 1-460): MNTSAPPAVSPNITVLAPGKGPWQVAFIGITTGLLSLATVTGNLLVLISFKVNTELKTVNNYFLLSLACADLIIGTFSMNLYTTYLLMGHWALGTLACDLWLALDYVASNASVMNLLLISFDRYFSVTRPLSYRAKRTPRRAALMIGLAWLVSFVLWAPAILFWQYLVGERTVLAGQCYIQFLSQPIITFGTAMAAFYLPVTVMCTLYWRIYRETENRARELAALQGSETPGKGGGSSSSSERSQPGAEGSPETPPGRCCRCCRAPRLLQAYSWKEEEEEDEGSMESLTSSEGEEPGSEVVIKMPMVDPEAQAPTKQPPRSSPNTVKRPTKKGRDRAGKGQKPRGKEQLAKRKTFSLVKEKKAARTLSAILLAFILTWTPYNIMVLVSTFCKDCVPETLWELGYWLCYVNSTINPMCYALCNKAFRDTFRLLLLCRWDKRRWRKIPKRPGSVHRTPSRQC
How it was run: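 Compounds tested as agonists at 11 concentrations in triplicate, with calcium traces captured over 3 minutes. Cells were HEK293 with stable human CHRM1 expression, plated overnight at 25K/well and loaded with calcium dye. Responses normalized to carbachol EC100 and fitted by four-parameter nonlinear regression.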

Emax [1]: 0% | EC50 [1]: > 25 µM | Emax [2]: 84% | EC50 [2]: 20 nM
Structure (SMILES): CC(C)(O)CCOc1ccccc1C1CCN([C@@H]2CCC3(C2)CN(c2nncs2)C3)CC1 [Example 3H, (R)-4-(2-(1-(2-(1,3,4-thiadiazol-2-yl)-2-azaspiro[3.4]octan-6-yl)piperidin-4-yl)phenoxy)-2-methylbutan-2-ol]

Emax [1]: 0% | EC50 [1]: > 25 µM | Emax [2]: 70% | EC50 [2]: 54 nM
Structure (SMILES): COc1ccccc1C1CCN([C@@H]2CCC3(C2)CN(c2ccns2)C3)CC1 [Example 3I, (R)-5-(6-(4-(2-methoxyphenyl)piperidin-1-yl)-2-azaspiro[3.4]octan-2-yl)isothiazole]

Emax [1]: 0% | EC50 [1]: > 25 µM | Emax [2]: 58% | EC50 [2]: 85 nM
Structure (SMILES): COCCOc1ccccc1C1CCN([C@@H]2CCC3(C2)CN(c2ncns2)C3)CC1 [Example 3J, (R)-5-(6-(4-(2-(2-methoxyethoxy)phenyl)piperidin-1-yl)-2-azaspiro[3.4]octan-2-yl)-1,2,4-thiadiazole]

Emax [1]: 0% | EC50 [1]: > 25 µM | Emax [2]: 57% | EC50 [2]: 186 nM
Structure (SMILES): CC(C)(O)COc1ccccc1C1CCN([C@@H]2CCC3(C2)CN(c2ncns2)C3)CC1 [Example 3K, (R)-1-(2-(1-(2-(1,2,4-thiadiazol-5-yl)-2-azaspiro[3.4]octan-6-yl)piperidin-4-yl)phenoxy)-2-methylpropan-2-ol]

Emax [1]: 0% | EC50 [1]: > 25 µM | Emax [2]: 67% | EC50 [2]: 62 nM
Structure (SMILES): CC(C)(O)CCOc1ccccc1C1CCN([C@@H]2CCC3(C2)CN(c2ncns2)C3)CC1 [Example 3L, (R)-4-(2-(1-(2-(1,2,4-thiadiazol-5-yl)-2-azaspiro[3.4]octan-6-yl)piperidin-4-yl)phenoxy)-2-methylbutan-2-ol]

Emax [1]: 0% | EC50 [1]: > 25 µM | Emax [2]: 0% | EC50 [2]: > 25000 nM
Structure (SMILES): COc1ccccc1C1CCN([C@@H]2CCC3(C2)CN(c2nc(C)ns2)C3)CC1 [Example 3M, (R)-5-(6-(4-(2-methoxyphenyl)piperidin-1-yl)-2-azaspiro[3.4]octan-2-yl)-3-methyl-1,2,4-thiadiazole]

Emax [1]: 0% | EC50 [1]: > 25 µM | Emax [2]: 61% | EC50 [2]: 102 nM
Structure (SMILES): Fc1cncc(N2CC3(CC[C@@H](N4CCC(c5ccccc5C5CCOCC5)CC4)C3)C2)c1 [Example 5AA, (R)-2-(5-fluoropyridin-3-yl)-6-(4-(2-(tetrahydro-2H-pyran-4-yl)phenyl)piperidin-1-yl)-2-azaspiro[3.4]octane]

Emax [1]: 0% | EC50 [1]: > 25 µM | Emax [2]: 72% | EC50 [2]: 201 nM
Structure (SMILES): c1ccc(C2CCN([C@@H]3CCC4(C3)CN(c3cncnc3)C4)CC2)c(C2CCOCC2)c1 [Example 5BB, (R)-2-(pyrimidin-5-yl)-6-(4-(2-(tetrahydro-2H-pyran-4-yl)phenyl)piperidin-1-yl)-2-azaspiro[3.4]octane]

Emax [1]: 0% | EC50 [1]: > 25 µM | Emax [2]: 36% | EC50 [2]: 335 nM
Structure (SMILES): Fc1ccc(N2CC3(CC[C@@H](N4CCC(c5ccccc5C5CCOCC5)CC4)C3)C2)cn1 [Example 5CC, (R)-2-(6-fluoropyridin-3-yl)-6-(4-(2-(tetrahydro-2H-pyran-4-yl)phenyl)piperidin-1-yl)-2-azaspiro[3.4]octane]

Emax [1]: 0% | EC50 [1]: > 25 µM | Emax [2]: 0% | EC50 [2]: 1260 nM
Structure (SMILES): COc1ccccc1C1CCN([C@@H]2CCC3(C2)CN(c2cnc(C)cn2)C3)CC1 [Example 5DD, (R)-6-(4-(2-methoxyphenyl)piperidin-1-yl)-2-(5-methylpyrazin-2-yl)-2-azaspiro[3.4]octane]

The next lines start with the molecule.

Structure (SMILES): c1ccc(C2CCN([C@@H]3CCC4(C3)CN(c3nnco3)C4)CC2)c(OC2CCOCC2)c1 [Example 2F, (R)-2-(6-(4-(2-((tetrahydro-2H-pyran-4-yl)oxy)phenyl)piperidin-1-yl)-2-azaspiro[3.4]octan-2-yl)-1,3,4-oxadiazole]
Emax [1]: 0% | EC50 [1]: > 25 µM | Emax [2]: 112% | EC50 [2]: 277 nM

Structure (SMILES): c1ccc(C2CCN([C@@H]3CCC4(C3)CN(c3nnco3)C4)CC2)c(OCC2CCOCC2)c1 [Example 2G, (R)-2-(6-(4-(2-((tetrahydro-2H-pyran-4-yl)methoxy)phenyl)piperidin-1-yl)-2-azaspiro[3.4]octan-2-yl)-1,3,4-oxadiazole]
Emax [1]: 0% | EC50 [1]: > 25 µM | Emax [2]: 51% | EC50 [2]: 429 nM

Structure (SMILES): c1ccc(C2CCN([C@@H]3CCC4(C3)CN(c3nnco3)C4)CC2)c(C2CCOCC2)c1 [Example 2H, (R)-2-(6-(4-(2-(tetrahydro-2H-pyran-4-yl)phenyl)piperidin-1-yl)-2-azaspiro[3.4]octan-2-yl)-1,3,4-oxadiazole]
Emax [1]: 0% | EC50 [1]: > 25 µM | Emax [2]: 61% | EC50 [2]: 178 nM

Structure (SMILES): Fc1ccc(C2CCOCC2)c(C2CCN([C@@H]3CCC4(C3)CN(c3nnco3)C4)CC2)c1 [Example 2I, (R)-2-(6-(4-(5-fluoro-2-(tetrahydro-2H-pyran-4-yl)phenyl)piperidin-1-yl)-2-azaspiro[3.4]octan-2-yl)-1,3,4-oxadiazole]
Emax [1]: 0% | EC50 [1]: > 25 µM | Emax [2]: 89% | EC50 [2]: 106 nM

Structure (SMILES): c1ccc(C2CCOC2)c(C2CCN([C@@H]3CCC4(C3)CN(c3nnco3)C4)CC2)c1 (stereo partly drawn) [Example 2K, 2-((6R)-6-(4-(2-(tetrahydrofuran-3-yl)phenyl)piperidin-1-yl)-2-azaspiro[3.4]octan-2-yl)-1,3,4-oxadiazole]
Emax [1]: 0% | EC50 [1]: > 25 µM | Emax [2]: 97% | EC50 [2]: 133 nM

Structure (SMILES): c1ccc(C2CCN([C@@H]3CCC4(C3)CN(c3nnco3)C4)CC2)c(CC2CCOCC2)c1 [Example 2L, (R)-2-(6-(4-(2-((tetrahydro-2H-pyran-4-yl)methyl)phenyl)piperidin-1-yl)-2-azaspiro[3.4]octan-2-yl)-1,3,4-oxadiazole]
Emax [1]: 0% | EC50 [1]: > 25 µM | Emax [2]: 69% | EC50 [2]: 540 nM

Structure (SMILES): c1ccc(C2CCN([C@@H]3CCC4(C3)CN(c3nnco3)C4)CC2)c(-c2ncco2)c1 [Example 2M, (R)-2-(6-(4-(2-(oxazol-2-yl)phenyl)piperidin-1-yl)-2-azaspiro[3.4]octan-2-yl)-1,3,4-oxadiazole]
Emax [1]: 0% | EC50 [1]: > 25 µM | Emax [2]: 99% | EC50 [2]: 93 nM

Structure (SMILES): c1ccc(C2CCN([C@@H]3CCC4(C3)CN(c3nncs3)C4)CC2)c(OC2COC2)c1 [Example 3A, (R)-2-(6-(4-(2-(oxetan-3-yloxy)phenyl)piperidin-1-yl)-2-azaspiro[3.4]octan-2-yl)-1,3,4-thiadiazole]
Emax [1]: 0% | EC50 [1]: > 25 µM | Emax [2]: 92% | EC50 [2]: 8 nM

Structure (SMILES): c1ccc(C2CCN([C@@H]3CCC4(C3)CN(c3nncs3)C4)CC2)c(OC[C@H]2COCCO2)c1 [Example 3B, 2-((R)-6-(4-(2-(((R)-1,4-dioxan-2-yl)methoxy)phenyl)piperidin-1-yl)-2-azaspiro[3.4]octan-2-yl)-1,3,4-thiadiazole]
Emax [1]: 0% | EC50 [1]: > 25 µM | Emax [2]: 83% | EC50 [2]: 51 nM

Structure (SMILES): c1ccc(C2CCN([C@@H]3CCC4(C3)CN(c3nncs3)C4)CC2)c(OC[C@@H]2COCCO2)c1 [Example 3C, 2-((R)-6-(4-(2-(((S)-1,4-dioxan-2-yl)methoxy)phenyl)piperidin-1-yl)-2-azaspiro[3.4]octan-2-yl)-1,3,4-thiadiazole]
Emax [1]: 0% | EC50 [1]: > 25 µM | Emax [2]: 88% | EC50 [2]: 41 nM

Structure (SMILES): COc1ccccc1C1CCN([C@@H]2CCC3(C2)CN(c2nncs2)C3)CC1 [Example 3D, (R)-2-(6-(4-(2-methoxyphenyl)piperidin-1-yl)-2-azaspiro[3.4]octan-2-yl)-1,3,4-thiadiazole]
Emax [1]: 0% | EC50 [1]: > 25 µM | Emax [2]: 78% | EC50 [2]: 42 nM

Structure (SMILES): Fc1cccc(C2CCN([C@@H]3CCC4(C3)CN(c3nncs3)C4)CC2)c1OC1COC1 [Example 3E, (R)-2-(6-(4-(3-fluoro-2-(oxetan-3-yloxy)phenyl)piperidin-1-yl)-2-azaspiro[3.4]octan-2-yl)-1,3,4-thiadiazole]
Emax [1]: 0% | EC50 [1]: > 25 µM | Emax [2]: 87% | EC50 [2]: 54 nM

Structure (SMILES): COCCOc1ccccc1C1CCN([C@@H]2CCC3(C2)CN(c2nncs2)C3)CC1 [Example 3F, (R)-2-(6-(4-(2-(2-methoxyethoxy)phenyl)piperidin-1-yl)-2-azaspiro[3.4]octan-2-yl)-1,3,4-thiadiazole]
Emax [1]: 0% | EC50 [1]: > 25 µM | Emax [2]: 68% | EC50 [2]: 40 nM

Structure (SMILES): CC(C)(O)COc1ccccc1C1CCN([C@@H]2CCC3(C2)CN(c2nncs2)C3)CC1 [Example 3G, (R)-1-(2-(1-(2-(1,3,4-thiadiazol-2-yl)-2-azaspiro[3.4]octan-6-yl)piperidin-4-yl)phenoxy)-2-methylpropan-2-ol]
Emax [1]: 0% | EC50 [1]: > 25 µM | Emax [2]: 66% | EC50 [2]: 135 nM

From US12122761B2, “2-azaspiro[3.4]octane derivatives as M4 agonists” (NOVARTIS AG, priority 2019, dated 2024)
